Measurements from ChEMBL document CHEMBL3885861, “Open TG-GATES”.

Species: Rattus norvegicus
Assay: Open TG-GATES - Regimen: Daily Repeat
Type: toxicity, organism-based, Sprague-Dawley
Parameters: regimen Daily Repeat, gender Male, age 6 weeks
Conditions: in vivo, po, route diet; for Hb / Ht / MCH / MCHC / MCV / Plat / RBC / Ret / WBC: tissue Blood; for KIDNEY_L / KIDNEY_R / KIDNEY_TOTAL: tissue Kidney; for LIVER: tissue Liver
[1] = 72 h, dose 0 %, dose level Control, time 3 day
[2] = 72 h, dose 9999 %, dose level High, time 3 day
[3] = 72 h, tissue Plasma, dose 0 %, dose level Control, time 3 day
[4] = 72 h, tissue Plasma, dose 9999 %, dose level High, time 3 day
[5] = […], dose 0 %, dose level Control, time 7 day
[6] = […], dose 0 %, dose level Control, time 14 day
[7] = […], dose 0 %, dose level Control, time 28 day
[8] = […], dose 9999 %, dose level High, time 7 day
[9] = […], dose 9999 %, dose level High, time 14 day
[10] = […], dose 9999 %, dose level High, time 28 day

Which results are given for `CC(C)CCC[C@@H](C)[C@H]1CC[C@H]2[C@@H]3CC=C4C[C@@H](O)CC[C@]4(C)[C@H]3CC[C@]12C.C[C@H](CCC(=O)[O-])[C@H]1CC[C@@H]2[C@]1(C)[C@@H](O)C[C@@H]1[C@@]3(C)CC[C@@H](O)C[C@H]3C[C@@H](O)[C@@]21C.[Na+]` [cholesterol + sodium cholate]?
TERMINAL_BW [1]: 232.1 g; TERMINAL_BW [2]: 241.9 g; Hb [1]: 12.9 g/dL; Ht [1]: 35.6%; MCH [1]: 23.1 pg; MCHC [1]: 36.2%; MCV [1]: 63.7 fL; Plat [1]: 121.7 x10_4/uL; RBC [1]: 558.2 x10_4/ul; Ret [1]: 6.9%; WBC [1]: 5.6 x10_2/uL; Hb [2]: 12.6 g/dL; Ht [2]: 35%; MCH [2]: 22.5 pg; MCHC [2]: 35.9%; MCV [2]: 62.6 fL; Plat [2]: 107.6 x10_4/uL; RBC [2]: 559.2 x10_4/ul; Ret [2]: 7%; WBC [2]: 5.8 x10_2/uL; KIDNEY_L [1]: 1 g; KIDNEY_R [1]: 1 g; KIDNEY_TOTAL [1]: 2 g; KIDNEY_R [2]: 1.1 g; KIDNEY_TOTAL [2]: 2.1 g; LIVER [1]: 10.6 g; LIVER [2]: 12.1 g; A/G [3]: 1; ALP [3]: 1907.2 IU/L; ALT [3]: 41.8 IU/L; AST [3]: 69 IU/L; BUN [3]: 17.8 mg/dL; CRE [3]: 0.2 mg/dL; Ca [3]: 10.6 mg/dL; Cl [3]: 102.1 meq/L; DBIL [3]: 0 mg/dL; GLC [3]: 176 mg/dL; IP [3]: 7.2 mg/dL; K [3]: 4.3 meq/L; LDH [3]: 113.2 IU/L; Na [3]: 139.7 meq/L; PL [3]: 161.4 mg/dL; RALB [3]: 2.9 g/dL; TBIL [3]: 0 mg/dL; TC [3]: 75 mg/dL; TG [3]: 106.9 mg/dL; TP [3]: 5.7 g/dL; gamma-GTP [3]: 0.9 IU/L; ALP [4]: 2118 IU/L; ALT [4]: 42.4 IU/L; AST [4]: 72.2 IU/L; BUN [4]: 20.4 mg/dL; Ca [4]: 10.8 mg/dL; Cl [4]: 101.4 meq/L; GLC [4]: 182.8 mg/dL; IP [4]: 7.7 mg/dL; K [4]: 4.5 meq/L; LDH [4]: 149.4 IU/L; Na [4]: 139.4 meq/L; PL [4]: 157.4 mg/dL; TC [4]: 187.2 mg/dL; TG [4]: 136.6 mg/dL; TP [4]: 5.9 g/dL; gamma-GTP [4]: 0.8 IU/L; TERMINAL_BW [5]: 274.4 g; TERMINAL_BW [6]: 313.6 g; TERMINAL_BW [7]: 422.8 g; TERMINAL_BW [8]: 281.4 g; TERMINAL_BW [9]: 337.1 g; TERMINAL_BW [10]: 433.7 g; Hb [5]: 13.2 g/dL; Ht [5]: 36.5%; MCH [5]: 22.4 pg; MCHC [5]: 36.1%; MCV [5]: 62.2 fL; Plat [5]: 127.7 x10_4/uL; RBC [5]: 587.8 x10_4/ul; Ret [5]: 5.5%; WBC [5]: 8.6 x10_2/uL; Hb [6]: 12.6 g/dL; Ht [6]: 38.3%; MCH [6]: 19.3 pg; MCHC [6]: 32.8%; MCV [6]: 58.7 fL; Plat [6]: 111.1 x10_4/uL; RBC [6]: 654 x10_4/ul; Ret [6]: 4.2%; WBC [6]: 44.3 x10_2/uL; Hb [7]: 13.3 g/dL; Ht [7]: 39.2%; MCH [7]: 18.8 pg; MCHC [7]: 33.9%; MCV [7]: 55.4 fL; Plat [7]: 101.1 x10_4/uL; RBC [7]: 707.2 x10_4/ul; Ret [7]: 3%; WBC [7]: 55.7 x10_2/uL; Hb [8]: 12.5 g/dL; Ht [8]: 34.9%; MCH [8]: 21.6 pg; MCHC [8]: 35.7%; MCV [8]: 60.7 fL; Plat [8]: 142.4 x10_4/uL; RBC [8]: 574.8 x10_4/ul; Ret [8]: 5.6%; WBC [8]: 7.3 x10_2/uL; Hb [9]: 11.8 g/dL; Ht [9]: 36%; MCH [9]: 19.1 pg; MCHC [9]: 32.7%; MCV [9]: 58.3 fL; Plat [9]: 148.5 x10_4/uL; RBC [9]: 617.4 x10_4/ul; Ret [9]: 4.7%; WBC [9]: 30.6 x10_2/uL; Hb [10]: 13.1 g/dL; Ht [10]: 39%; MCHC [10]: 33.6%; MCV [10]: 55.9 fL; Plat [10]: 116.2 x10_4/uL; RBC [10]: 698.8 x10_4/ul; Ret [10]: 3.2%; WBC [10]: 50.2 x10_2/uL; KIDNEY_L [5]: 1.1 g; KIDNEY_R [5]: 1.1 g; KIDNEY_TOTAL [5]: 2.2 g; KIDNEY_L [6]: 1.2 g; KIDNEY_R [6]: 1.2 g; KIDNEY_TOTAL [6]: 2.3 g; KIDNEY_L [7]: 1.4 g; KIDNEY_R [7]: 1.4 g
